{
  "source": "patent US20240115745A1",
  "about": "“COMPOUNDS COMPRISING A FIBROBLAST ACTIVATION PROTEIN LIGAND AND USE THEREOF” (3B PHARMACEUTICALS GMBH, priority 2021, published 2024)",
  "key": {"Recombinant human FAP": {"target": "T1, Recombinant human FAP (Homo sapiens, UniProt Q12884)", "T1 construct": "purchased R&D systems 3715-SE", "T1 sequence (Q12884 26-760 limits assumed)": "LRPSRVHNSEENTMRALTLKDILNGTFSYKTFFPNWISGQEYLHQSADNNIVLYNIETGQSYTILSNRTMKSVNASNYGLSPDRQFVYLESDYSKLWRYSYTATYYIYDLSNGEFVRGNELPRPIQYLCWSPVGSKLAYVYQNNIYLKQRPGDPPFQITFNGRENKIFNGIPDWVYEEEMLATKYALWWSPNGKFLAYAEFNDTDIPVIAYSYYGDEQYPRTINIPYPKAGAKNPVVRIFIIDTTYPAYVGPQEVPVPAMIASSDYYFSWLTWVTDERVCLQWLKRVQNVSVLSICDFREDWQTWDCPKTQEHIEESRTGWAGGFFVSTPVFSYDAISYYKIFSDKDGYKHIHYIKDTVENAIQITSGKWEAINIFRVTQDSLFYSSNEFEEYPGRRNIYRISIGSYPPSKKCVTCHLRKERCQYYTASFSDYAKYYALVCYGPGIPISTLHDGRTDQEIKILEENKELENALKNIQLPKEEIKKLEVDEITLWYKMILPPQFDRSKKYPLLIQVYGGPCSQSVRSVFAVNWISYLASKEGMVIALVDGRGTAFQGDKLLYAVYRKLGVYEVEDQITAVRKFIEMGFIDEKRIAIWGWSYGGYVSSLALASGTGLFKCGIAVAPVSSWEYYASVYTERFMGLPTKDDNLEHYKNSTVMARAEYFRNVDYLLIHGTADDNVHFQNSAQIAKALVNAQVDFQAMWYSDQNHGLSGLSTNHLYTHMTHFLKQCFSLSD", "assay": "FRET-based FAP protease activity assay", "type": "biochemical"}, "[1]": {"target": "T2, FAP-expressing human WI-38 fibroblasts (Homo sapiens, UniProt Q12884)", "T2 construct": "FAP-expressing human WI-38 fibroblasts (ECACC) were cultured in EMEM; host or cells: WI-38 human fibroblasts", "T2 sequence (Q12884 whole entry)": "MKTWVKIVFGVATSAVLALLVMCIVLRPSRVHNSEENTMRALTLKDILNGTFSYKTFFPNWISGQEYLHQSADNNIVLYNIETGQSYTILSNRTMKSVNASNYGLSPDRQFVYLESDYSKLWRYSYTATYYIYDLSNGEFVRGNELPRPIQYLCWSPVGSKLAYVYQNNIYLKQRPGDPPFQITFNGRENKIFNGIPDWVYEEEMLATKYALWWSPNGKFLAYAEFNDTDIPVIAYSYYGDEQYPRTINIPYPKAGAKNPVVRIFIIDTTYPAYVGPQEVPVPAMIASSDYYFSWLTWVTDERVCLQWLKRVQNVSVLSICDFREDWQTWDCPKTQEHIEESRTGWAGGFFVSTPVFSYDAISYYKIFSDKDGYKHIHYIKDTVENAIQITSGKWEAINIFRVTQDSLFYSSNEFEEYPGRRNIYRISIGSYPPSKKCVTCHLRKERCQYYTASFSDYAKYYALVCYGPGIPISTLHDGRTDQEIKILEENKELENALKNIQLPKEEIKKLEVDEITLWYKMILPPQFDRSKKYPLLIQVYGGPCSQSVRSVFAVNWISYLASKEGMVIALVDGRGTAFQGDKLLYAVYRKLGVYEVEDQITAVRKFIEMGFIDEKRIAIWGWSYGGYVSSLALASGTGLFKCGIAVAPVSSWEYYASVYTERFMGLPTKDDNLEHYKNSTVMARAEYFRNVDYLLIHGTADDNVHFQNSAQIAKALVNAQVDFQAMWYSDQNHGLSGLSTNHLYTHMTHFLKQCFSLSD", "assay": "Competitive FACS binding assay;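 further: flow cytometry read-out of median Cy5 fluorescence on the cells, plotted versus test compound concentration, with IC50 derived by four-parameter logistic curve fitting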"}, "[2]": {"conditions": "recombinant human FAP, FRET-peptide substrate, 37° C., read-out: pIC50 Category (Activity) (converted)"}, "[3]": {"conditions": "competition with 3 nM Cy5-labeled compound, WI-38 fibroblasts, 4° C., 1 hour, read-out: pIC50 Category (FACS) (converted)"}},
  "note": "Where two headings read alike, the source gives them in different places. *1 amine or outer side, *2 acyl side, *3 side chain or, on linkers, in order; H or OH if unused. Where a SMILES comes first, the peptide text is derived from it. Bridges are numbered along the chain shown (N, C = ends). [ ]: non-standard residue; d: D form. The star is where a group is joined. ξ: configuration not given here. X4 = O=C(O)CN1CCN(CC(=O)O)CCN(CC(=O)NCCCOCCOCCOCCCN*)CCN(CC(=O)O)CC1; X1 = NC(=O)CC[C@H](N[*:1])C(=O)C[C@@H](Cc1ccccc1)C(=O)[*:2]; DOTA = O=C(O)CN1CCN(CC(=O)O)CCN(CC(=O)*)CCN(CC(=O)O)CC1; Maleimide(3,4-diyl) = O=C1NC(=O)C([*:2])=C1[*:1]; X7 = CN1C(=O)C([*:1])=C([*:2])C1=O; ξThr(3R) = C[C@@H](O)C(N)C(=O)O; Suc = O=C(CCC(=O)[*:2])[*:1]; β3hK = NCCCC[C@H](N)CC(=O)O; 4Amb = NCc1ccc(C(=O)O)cc1; hCys = N[C@@H](CCS)C(=O)O; Nle = CCCC[C@H](N)C(=O)O; Hexanoyl = CCCCCC(=O)*; CO = O=C([*:1])[*:2]; ξP = O=C(O)C1CCCN1; NHBu = CCCCN*",
  "data": [
    {"smiles": "CCCCCC(=O)N[C@H]1CSC2=C(SC[C@@H](C(=O)N[C@@H](CC(=O)O)C(N)=O)NC(=O)[C@H](Cc3ccccc3)NC(=O)[C@H](CCC(N)=O)NC(=O)[C@H]([C@@H](C)O)NC(=O)[C@@H]3CCCN3C(=O)[C@@H]3CCCN3C1=O)C(=O)N(CCCOCCOCCOCCCNC(=O)CN1CCN(CC(=O)O)CCN(CC(=O)O)CCN(CC(=O)O)CC1)C2=O", "note": "[Compound 2017, Hex-[Cys(mli(DOTA-Ttd))-Pro-Pro-Thr-Gln-Phe-Cys]-Asp-NH2] (HELM PEPTIDE1{[CCCCCC(=O)[*:2]].C.P.P.T.Q.F.C.D.[am]}|CHEM1{[O=C(O)CN1CCN(CC(=O)O)CCN(CC(=O)NCCCOCCOCCOCCCN2C(=O)C([*:1])=C([*:2])C2=O)CCN(CC(=O)O)CC1]}$PEPTIDE1,CHEM1,2:R3-1:R1|PEPTIDE1,CHEM1,8:R3-1:R2$$$V2.0)", "values": [
      {"measurement": "IC50", "setting": "Recombinant human FAP", "result": "< 100", "unit": "nM"},
      {"measurement": "IC50", "setting": "[1]", "result": "< 100", "unit": "nM"}
    ]},
    {"smiles": "CCCCNC(=O)N[C@H]1CSC2=C(SC[C@@H](C(=O)N[C@@H](CC(=O)O)C(=O)N[C@@H](CCCCNC(=O)CN3CCN(CC(=O)O)CCN(CC(=O)O)CCN(CC(=O)O)CC3)C(N)=O)NC(=O)[C@H](Cc3ccccc3)NC(=O)[C@H](CCC(N)=O)NC(=O)C([C@@H](C)O)NC(=O)[C@@H]3CCCN3C(=O)[C@@H]3CCCN3C1=O)C(=O)N(C)C2=O", "note": "(stereo partly drawn) [Compound 2015, Hex-[Cys(mli(Me))-Pro-Pro-Thr-Gln-Phe-Cys]-Asp-Lys(DOTA)-NH2] ({NHBu-CO}-CPP[ξThr(3R)]QFCDK(DOTA)-NH2; linker 1-7 via X7)", "values": [
      {"measurement": "IC50", "setting": "Recombinant human FAP; [2]", "result": "< 100", "unit": "nM"},
      {"measurement": "IC50", "setting": "[1]; [3]", "result": "< 100", "unit": "nM"}
    ]},
    {"smiles": "CCCCCC(=O)N[C@H]1CSC2=C(SC[C@@H](C(=O)N[C@@H](CC(=O)O)C(=O)N[C@@H](CCCCNC(=O)CN3CCN(CC(=O)O)CCN(CC(=O)O)CCN(CC(=O)O)CC3)C(N)=O)NC(=O)[C@H](Cc3ccccc3)NC(=O)[C@H](CCC(N)=O)NC(=O)[C@H]([C@@H](C)O)NC(=O)[C@@H]3CCCN3C(=O)C3CCCN3C1=O)C(=O)NC2=O", "note": "(stereo partly drawn) [Compound 2012, Hex-[Cys(mli)-Pro-Pro-Thr-Gln-Phe-Cys]-Asp-Lys(DOTA)-NH2] (Hexanoyl-C[ξP]PTQFCDK(DOTA)-NH2; linker 1-7 via Maleimide(3,4-diyl))", "values": [
      {"measurement": "IC50", "setting": "Recombinant human FAP; [2]", "result": "< 100", "unit": "nM"},
      {"measurement": "IC50", "setting": "[1]; [3]", "result": "< 100", "unit": "nM"}
    ]},
    {"smiles": "CCCC[C@H](NC(=O)CCC(=O)NCCCOCCOCCOCCCNC(=O)CN1CCN(CC(=O)O)CCN(CC(=O)O)CCN(CC(=O)O)CC1)C(=O)N[C@H]1CSC2=C(SC[C@@H](C(=O)N[C@@H](CC(=O)O)C(=O)NCc3ccc(C(=O)N[C@@H](CCCNC(=N)N)C(N)=O)cc3)NC(=O)[C@H](Cc3ccccc3)CC(=O)[C@H](CCC(N)=O)NC(=O)[C@H]([C@@H](C)O)NC(=O)[C@@H]3CCCN3C(=O)[C@@H]3CCCN3C1=O)C(=O)NC2=O", "note": "[Compound 2006, DOTA-Ttds-Nle-[Cys(mli)-Pro-Pro-Thr-Gln-Phe-Cys]-Asp-Pamb-Arg-NH2] ({X4-Suc}-[Nle]CPPT[X1]CD[4Amb]R-NH2; linker 2-7 via Maleimide(3,4-diyl))", "values": [
      {"measurement": "IC50", "setting": "Recombinant human FAP; [2]", "result": "< 100", "unit": "nM"},
      {"measurement": "IC50", "setting": "[1]; [3]", "result": "< 100", "unit": "nM"}
    ]},
    {"smiles": "CCCCCC(=O)N[C@H]1CSSC[C@@H](C(=O)N[C@@H](CCCCNC(=O)CN2CCN(CC(=O)O)CCN(CC(=O)O)CCN(CC(=O)O)CC2)CC(=O)O)NC(=O)[C@H](Cc2ccccc2)NC(=O)[C@H](CCC(=O)O)NC(=O)[C@H]([C@@H](C)O)NC(=O)[C@@H]2CCCN2C(=O)[C@@H]2CCCN2C1=O", "note": "[Compound 1012, Hex-[Cys-Pro-Pro-Thr-Glu-Phe-Cys]-Bhk(DOTA)-OH] (Hexanoyl-CPPTEFC[β3hK](DOTA)-OH; disulfide 1-7)", "values": [
      {"measurement": "IC50", "setting": "Recombinant human FAP; [2]", "result": "< 100", "unit": "nM"},
      {"measurement": "IC50", "setting": "[1]; [3]", "result": "< 100", "unit": "nM"}
    ]},
    {"smiles": "CCCCCC(=O)N[C@H]1CSC2=C(SC[C@@H](C(=O)N[C@@H](CC(=O)O)C(N)=O)NC(=O)[C@H](Cc3ccccc3)NC(=O)[C@H](CCC(N)=O)NC(=O)[C@H]([C@@H](C)O)NC(=O)[C@@H]3CCCN3C(=O)[C@@H]3CCCN3C1=O)C(=O)N(CCCC(=O)CN1CCN(CC(=O)O)CCN(CC(=O)O)CCN(CC(=O)O)CC1)C2=O", "note": "[Compound 2018, Hex-[Cys(mli(DOTA-Eda))-Pro-Pro-Thr-Gln-Phe-Cys]-Asp-NH2] (HELM PEPTIDE1{[CCCCCC(=O)[*:2]].C.P.P.T.Q.F.C.D.[am]}|CHEM1{[O=C(O)CN1CCN(CC(=O)O)CCN(CC(=O)CCCN2C(=O)C([*:1])=C([*:2])C2=O)CCN(CC(=O)O)CC1]}$PEPTIDE1,CHEM1,2:R3-1:R1|PEPTIDE1,CHEM1,8:R3-1:R2$$$V2.0)", "values": [
      {"measurement": "IC50", "setting": "Recombinant human FAP", "result": "< 100", "unit": "nM"},
      {"measurement": "IC50", "setting": "[1]", "result": "< 100", "unit": "nM"}
    ]},
    {"smiles": "CCCCCC(=O)N[C@H]1CCSSCC[C@@H](C(=O)N[C@@H](CC(=O)O)C(N)=O)NC(=O)[C@H](Cc2ccccc2)NC(=O)[C@H](CCC(N)=O)NC(=O)[C@H]([C@@H](C)O)NC(=O)[C@@H]2CCCN2C(=O)[C@@H]2CCCN2C1=O", "note": "[Compound 2002, Hex-[Hcy-Pro-Pro-Thr-Gln-Phe-Hcy]-Asp-NH2] (Hexanoyl-[hCys]PPTQF[hCys]D-NH2; disulfide 1-7)", "values": [
      {"measurement": "IC50", "setting": "Recombinant human FAP; [2]", "result": "< 100", "unit": "nM"},
      {"measurement": "IC50", "setting": "[1]; [3]", "result": "< 100", "unit": "nM"}
    ]},
    {"smiles": "CCCC[C@H](NC(=O)CCC(=O)NCCCOCCOCCOCCCNC(=O)CN1CCN(CC(=O)O)CCN(CC(=O)O)CCN(CC(=O)O)CC1)C(=O)N[C@H]1CSSC[C@@H](C(=O)NCCC(=O)O)NC(=O)[C@H](Cc2ccccc2)NC(=O)[C@H](CCC(N)=O)NC(=O)[C@H]([C@@H](C)O)NC(=O)[C@@H]2CCCN2C(=O)[C@@H]2CCCN2C1=O", "note": "[Compound 1010, DOTA-Ttds-Nle-[Cys-Pro-Pro-Thr-Gln-Phe-Cys]-Bal-OH]", "values": [
      {"measurement": "IC50", "setting": "Recombinant human FAP; [2]", "result": "< 100", "unit": "nM"},
      {"measurement": "IC50", "setting": "[1]; [3]", "result": "< 100", "unit": "nM"}
    ]},
    {"smiles": "CCCCCC(=O)N[C@H]1CSC2=C(SC[C@@H](C(=O)N[C@@H](CC(=O)O)C(N)=O)NC(=O)[C@H](Cc3ccccc3)NC(=O)[C@H](CCC(N)=O)NC(=O)[C@H]([C@@H](C)O)NC(=O)[C@@H]3CCCN3C(=O)[C@@H]3CCCN3C1=O)C(=O)NC2=O", "note": "[Compound 2001, Hex-[Cys(mli)-Pro-Pro-Thr-Gln-Phe-Cys]-Asp-NH2] (HELM PEPTIDE1{[CCCCCC(=O)[*:2]].C.P.P.T.Q.F.C.D.[am]}|CHEM1{[O=C1NC(=O)C([*:2])=C1[*:1]]}$PEPTIDE1,CHEM1,2:R3-1:R1|PEPTIDE1,CHEM1,8:R3-1:R2$$$V2.0)", "values": [
      {"measurement": "IC50", "setting": "Recombinant human FAP; [2]", "result": "< 100", "unit": "nM"},
      {"measurement": "IC50", "setting": "[1]; [3]", "result": "< 100", "unit": "nM"}
    ]},
    {"smiles": "CCCC[C@H](NC(=O)CCC(=O)NCCCOCCOCCOCCCNC(=O)CN1CCN(CC(=O)O)CCN(CC(=O)O)CCN(CC(=O)O)CC1)C(=O)N[C@H]1CSSC[C@@H](C(=O)N[C@@H](CC(=O)O)C(=O)NCc2ccc(C(=O)N[C@@H](CCCNC(=N)N)C(N)=O)cc2)NC(=O)[C@H](Cc2ccccc2)NC(=O)[C@H](CCC(=O)O)NC(=O)[C@H]([C@@H](C)O)NC(=O)[C@@H]2CCCN2C(=O)[C@@H]2CCCN2C1=O", "note": "[Compound 1007, DOTA-Ttds-Nle-[Cys-Pro-Pro-Thr-Glu-Phe-Cys]-Asp-Pamb-Arg-NH2] ({X4-Suc}-[Nle]CPPTEFCD[4Amb]R-NH2; disulfide 2-8)", "values": [
      {"measurement": "IC50", "setting": "Recombinant human FAP; [2]", "result": "< 100", "unit": "nM"},
      {"measurement": "IC50", "setting": "[1]; [3]", "result": "< 100", "unit": "nM"}
    ]},
    {"smiles": "CCCC[C@H](NC(=O)CCC(=O)NCCCOCCOCCOCCCNC(=O)CN1CCN(CC(=O)O)CCN(CC(=O)O)CCN(CC(=O)O)CC1)C(=O)N[C@H]1CSSC[C@@H](C(=O)N[C@@H](CC(=O)O)C(N)=O)NC(=O)[C@H](Cc2ccccc2)NC(=O)[C@H](CCC(N)=O)NC(=O)[C@H]([C@@H](C)O)NC(=O)[C@@H]2CCCN2C(=O)[C@@H]2CCCN2C1=O", "note": "[Compound 1008, DOTA-Ttds-Nle-[Cys-Pro-Pro-Thr-Gln-Phe-Cys]-Asp-NH2] ({X4-Suc}-[Nle]CPPTQFCD-NH2; disulfide 2-8)", "values": [
      {"measurement": "IC50", "setting": "Recombinant human FAP; [2]", "result": "< 100", "unit": "nM"},
      {"measurement": "IC50", "setting": "[1]; [3]", "result": "< 100", "unit": "nM"}
    ]}
  ]
}
